Counter-ions that a name gives are not always drawn. Like-named read-outs stand apart in the source and are kept apart here.
Tests used:
[1] = biological target: human 5-HT3 serotonin receptors (Homo sapiens (Human), UniProt P46098); assay: [3H]BRL 43694 competition binding
[2] = biological target: human α7 nAChRs transiently expressed in Xenopus laevis oocytes (Homo sapiens (Human), UniProt P36544); assay: Oocyte electrophysiology screen (TEVC); assay type: cell-based; conditions: 0.01 mM test compound, peak current relative to 0.2 mM ACh
How it was run: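 Oocytes expressing human α7 were clamped at −80 mV by TEVC. After a 0.2 mM ACh control pulse, test compound was applied at 0.01 mM for 30 s. Agonist response is peak current as % of the ACh response, in triplicate.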

[3] = CHO cell membranes, [3H]BRL 43694, Cheng Prusoff, read-out: h-5HT3 Ki

human 5-HT3 serotonin receptors, sequence (P46098 24-478): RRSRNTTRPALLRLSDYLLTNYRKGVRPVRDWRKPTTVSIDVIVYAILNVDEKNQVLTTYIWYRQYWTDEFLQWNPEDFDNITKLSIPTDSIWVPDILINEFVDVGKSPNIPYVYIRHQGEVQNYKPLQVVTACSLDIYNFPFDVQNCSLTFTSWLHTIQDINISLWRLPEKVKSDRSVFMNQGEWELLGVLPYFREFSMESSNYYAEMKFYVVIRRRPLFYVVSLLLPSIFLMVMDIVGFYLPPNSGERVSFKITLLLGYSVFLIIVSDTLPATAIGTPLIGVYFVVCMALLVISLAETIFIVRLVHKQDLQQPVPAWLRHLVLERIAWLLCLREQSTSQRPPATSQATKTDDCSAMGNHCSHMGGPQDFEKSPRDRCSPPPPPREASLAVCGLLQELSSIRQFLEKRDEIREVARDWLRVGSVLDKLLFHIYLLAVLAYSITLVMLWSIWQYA
human α7 nAChRs transiently expressed in Xenopus laevis oocytes, sequence (P36544 23-502 limits assumed): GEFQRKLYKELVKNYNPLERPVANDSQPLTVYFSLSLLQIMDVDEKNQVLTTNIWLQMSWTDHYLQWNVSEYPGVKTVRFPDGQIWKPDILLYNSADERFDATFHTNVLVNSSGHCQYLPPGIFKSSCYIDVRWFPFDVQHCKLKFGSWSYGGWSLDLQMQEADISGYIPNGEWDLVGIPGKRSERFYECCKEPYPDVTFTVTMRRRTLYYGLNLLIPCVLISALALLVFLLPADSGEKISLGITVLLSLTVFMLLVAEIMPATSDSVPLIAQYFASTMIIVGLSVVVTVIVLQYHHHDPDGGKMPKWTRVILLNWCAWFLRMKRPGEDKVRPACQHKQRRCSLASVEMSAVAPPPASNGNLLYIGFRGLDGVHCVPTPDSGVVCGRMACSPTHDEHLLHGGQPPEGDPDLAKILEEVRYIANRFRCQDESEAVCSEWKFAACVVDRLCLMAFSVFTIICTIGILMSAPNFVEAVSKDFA

Structure (SMILES) | Ki [1, 3] [µM] | % ACh @ 10 μM Oocyte [2] [% ACh] | Ki [1] [µM]
CC1(C)[C@H](NC(=O)c2cc3cc(F)ccc3s2)C2CCN1CC2 [(R)-11, (R)—N-(2,2-dimethylquinuclidin-3-yl)-5-fluorobenzo[b]thiophene-2-carboxamide hydrochloride] | 1.7 | 552 | 
CC1(C)[C@H](NC(=O)c2cc3cccc(Cl)c3o2)C2CCN1CC2.Cl [(R)-217, (R)-7-chloro-N-(2,2-dimethylquinuclidin-3-yl)benzofuran-2-carboxamide hydrochloride] | 1.1 | 473 | 
COc1ccc2cc(C(=O)N[C@@H]3C4CCN(CC4)C3(C)C)sc2c1F [(R)-51, (R)—N-(2,2-dimethylquinuclidin-3-yl)-7-fluoro-6-methoxybenzo[b]thiophene-2-carboxamide hydrochloride] | > 10 | 326 | 
O=C(N[C@@H]1C2CCN(CC2)C12CC2)c1ccc2oc(Cl)cc2c1 [(R)-92, (R)-2-chloro-N-(1′-azaspiro[cyclopropane-1,2′-bicyclo[2.2.2]octan]-3′-yl)benzofuran-5-carboxamide hydrochloride] | > 10 | 532 | 
CC1(C)[C@H](NC(=O)c2cc3cccc(F)c3s2)C2CCN1CC2 [(R)-4, (R)—N-(2,2-dimethylquinuclidin-3-yl)-7-fluoro-benzo[b]thiophene-2-carboxamide hydrochloride] | 0.87 | 1060 | 
CC1(C)[C@H](NC(=O)c2cc3ccc(F)c(Cl)c3s2)C2CCN1CC2 [(R)-114, (R)-7-chloro-N-(2,2-dimethylquinuclidin-3-yl)-6-fluorobenzo[b]thiophene-2-carboxamide hydrochloride] | 0.62 | 703 | 
O=C(N[C@@H]1C2CCN(CC2)C12CC2)c1ccc2c(c1)OCCO2 [(R)-107, (R)—N-(1′-azaspiro[cyclopropane-1,2′-bicyclo[2.2.2]octan]-3′-yl)-2,3-dihydrobenzo[b][1,4]dioxine-6-carboxamide hydrochloride] | > 10 | 414 | 
CC1(C)[C@H](NC(=O)c2cc3cccc(C(F)(F)F)c3s2)C2CCN1CC2 [(R)-7, (R)—N-(2,2-dimethylquinuclidin-3-yl)-7-(trifluoromethyl)benzo[b]thiophene-2-carboxamide hydrochloride] | 3.4 | 466 | 
CC1(C)[C@H](NC(=O)c2cc3ccc(C#N)cc3s2)C2CCN1CC2 [(R)-9, (R)-6-cyano-N-(2,2-dimethylquinuclidin-3-yl)benzo[b]thiophene-2-carboxamide hydrochloride] | > 10 | 2 | 
O=C(N[C@@H]1C2CCN(CC2)C12CC2)c1cc2ccc(N3CCOCC3)cc2s1 [(R)-99, (R)-6-morpholino-N-(1′-azaspiro[cyclopropane-1,2′-bicyclo[2.2.2]octan]-3′-yl)benzo[b]thiophene-2-carboxamide hydrochloride] | > 10 | 1 | 
CC1(C)[C@H](NC(=O)c2ccc3ccsc3c2)C2CCN1CC2 [(R)-5, (R)—N-(2,2-dimethylquinuclidin-3-yl)benzo[b]thiophene-6-carboxamide hydrochloride] | 1.9 | 282 | 
CC1(C)[C@H](NC(=O)c2ccc3sccc3c2)C2CCN1CC2 [(R)-30, (R)—N-(2,2-dimethylquinuclidin-3-yl)benzo[b]thiophene-5-carboxamide hydrochloride] | 2.3 | 396 | 
Cc1ccc2cc(C(=O)N[C@@H]3C4CCN(CC4)C3(C)C)sc2c1Cl [(R)-52, (R)-7-chloro-N-(2,2-dimethylquinuclidin-3-yl)-6-methylbenzo[b]thiophene-2-carboxamide hydrochloride] | 0.64 | 844 | 
Cc1ccc2cc(C(=O)N[C@@H]3C4CCN(CC4)C3(C)C)sc2c1 [(R)-15, (R)—N-(2,2-dimethylquinuclidin-3-yl)-6-methylbenzo[b]thiophene-2-carboxamide hydrochloride] | > 10 | 539 | 
Cc1csc2ccc(C(=O)N[C@@H]3C4CCN(CC4)C34CC4)cc12 [(R)-77, (R)-3-methyl-N-(1′-azaspiro[cyclopropane-1,2′-bicyclo[2.2.2]octan]-3′-yl)benzo[b]thiophene-5-carboxamide hydrochloride] | 0.66 | 547 | 
Cc1nc2cc(C(=O)N[C@@H]3C4CCN(CC4)C34CC4)ccc2o1 [(R)-85, (R)-2-methyl-N-(1′-azaspiro[cyclopropane-1,2′-bicyclo[2.2.2]octan]-3′-yl)benzo[d]oxazole-5-carboxamide] | > 10 | 188 | 

Structure (SMILES) | Ki [1, 3] [µM] | % ACh @ 10 μM Oocyte [2] [% ACh] | Ki [1] [µM]
O=C(N[C@@H]1C2CCN(CC2)C12CC2)c1cc2ccc(C3CC3)c(F)c2s1 [(R)-159, (R)-6-cyclopropyl-7-fluoro-N-(1′-azaspiro[cyclopropane-1,2′-bicyclo[2.2.2]octan]-3′-yl)benzo[b]thiophene-2-carboxamide hydrochloride] | > 10 | 24 | 
CC1(C)[C@H](NC(=O)c2cc3ccc(Br)cc3s2)C2CCN1CC2 [(R)-46, (R)-6-bromo-N-(2,2-dimethylquinuclidin-3-yl)benzo[b]thiophene-2-carboxamide hydrochloride] | > 10 | 301 | 
CC1(C)[C@H](NC(=O)c2cc3c(cn2)OCCO3)C2CCN1CC2 [(R)-23, (R)—N-(2,2-dimethylquinuclidin-3-yl)-2,3-dihydro-[1,4]dioxino[2,3-c]pyridine-7-carboxamide hydrochloride] | > 10 | 82 | 
COc1ccc2cc(C(=O)N[C@@H]3C4CCN(CC4)C34CC4)sc2c1F [(R)-155, (R)-7-fluoro-6-methoxy-N-(1′-azaspiro[cyclopropane-1,2′-bicyclo[2.2.2]octan]-3′-yl)benzo[b]thiophene-2-carboxamide hydrochloride] | > 10 | 513 | 
Cc1cc2cc(C(=O)N[C@@H]3C4CCN(CC4)C34CC4)ccc2o1 [(R)-91, (R)-2-methyl-N-(1′-azaspiro[cyclopropane-1,2′-bicyclo[2.2.2]octan]-3′-yl)benzofuran-5-carboxamide hydrochloride] | > 10 | 653 | 
CC1(C)[C@H](NC(=O)c2cc3ccc(F)cc3s2)C2CCN1CC2 [(R)-8, (R)—N-(2,2-dimethylquinuclidin-3-yl)-6-fluorobenzo[b]thiophene-2-carboxamide hydrochloride] | 6.5 | 480 | 
O=C(NC1C2CCN(CC2)C12CC2)c1cc2cccc(Cl)c2s1 (single isomer, unassigned; enantiomer1) [56a, 7-chloro-N-(1′-azaspiro[cyclopropane-1,2′-bicyclo[2.2.2]octan]-3′-yl)benzo[b]thiophene-2-carboxamide-enantiomer1] |  | 1231 | 0.048
O=C(N[C@@H]1C2CCN(CC2)C12CC2)c1ccc2ccoc2c1 [(R)-84, (R)—N-(1′-azaspiro[cyclopropane-1,2′-bicyclo[2.2.2]octan]-3′-yl)benzofuran-6-carboxamide hydrochloride] | 4.7 | 341 | 
COc1cccc2cc(C(=O)N[C@@H]3C4CCN(CC4)C3(C)C)sc12 [(R)-116, (R)—N-(2,2-dimethylquinuclidin-3-yl)-7-methoxybenzo[b]thiophene-2-carboxamide hydrochloride] | 0.6 | 963 | 
O=C(N[C@@H]1C2CCN(CC2)C12CC2)c1cc2ccsc2cn1 [(R)-97, (R)—N-(1′-azaspiro[cyclopropane-1,2′-bicyclo[2.2.2]octan]-3′-yl)thieno[2,3-c]pyridine-5-carboxamide hydrochloride] | 0.43 | 816 | 
O=C(N[C@@H]1C2CCN(CC2)C12CC2)c1cc2ccc(Cl)c(Cl)c2s1 [(R)-150, (R)-6,7-dichloro-N-(1′-azaspiro[cyclopropane-1,2′-bicyclo[2.2.2]octan]-3′-yl)benzo[b]thiophene-2-carboxamide hydrochloride] | 2.2 | 443 | 
CC1(C)[C@H](NC(=O)c2cc3cc(Cl)ccc3s2)C2CCN1CC2 [(R)-13, (R)-5-chloro-N-(2,2-dimethylquinuclidin-3-yl)benzo[b]thiophene-2-carboxamide hydrochloride] | 2.1 | 132 | 
CC1(C)[C@H](NC(=O)c2cc3ccc(C4CC4)cc3s2)C2CCN1CC2 [(R)-18, (R)-6-cyclopropyl-N-(2,2-dimethylquinuclidin-3-yl)benzo[b]thiophene-2-carboxamide hydrochloride] | > 10 | 422 | 
Cc1nc2ccc(C(=O)N[C@@H]3C4CCN(CC4)C34CC4)cc2o1 [(R)-86, (R)-2-methyl-N-(1′-azaspiro[cyclopropane-1,2′-bicyclo[2.2.2]octan]-3′-yl)benzo[d]oxazole-6-carboxamide] | > 10 | 67 | 
CC1(C)[C@H](NC(=O)c2cc3ccc(Cl)c(F)c3s2)C2CCN1CC2 [(R)-110, (R)-6-chloro-N-(2,2-dimethylquinuclidin-3-yl)-7-fluorobenzo[b]thiophene-2-carboxamide hydrochloride] | > 10 | 444 | 
O=C(N[C@@H]1C2CCN(CC2)C12CC2)c1ccc2occc2c1 [(R)-59, (R)—N-(1′-azaspiro[cyclopropane-1,2′-bicyclo[2.2.2]octan]-3′-yl)benzofuran-5-carboxamide hydrochloride] | 6.8 | 374 | 

Source: patent publication US10183938B2, “Geminal substituted quinuclidine amide compounds as agonists of α-7 nicotonic acetylcholine receptors” (AXOVANT SCIENCES GMBH, priority 2014, dated 2019)
